Measured values published in US9334283B2, “CCR1 antagonists and methods of use thereof” (Millennium Pharmaceuticals, Inc., priority 2002, dated 2016).

Assays:
[1] = molecular target: T1, CCR1 (125I-MIP-1α binding to THP-1 cell membranes) (Homo sapiens, UniProt P32246); assay: THP-1 cell membrane 125I-MIP-1α binding assay; conditions: 0.1 to 0.2 nM 125I-MIP-1α, 60 min at room temperature, read-out: Inhibition of 125I-MIP-1α Binding to THP-1 Cell Membranes (Ki (nM))
T1 construct: Membranes were prepared from THP-1 cells (ATCC. #TIB202); host or cells: THP-1 cells (membrane preparation)
T1 sequence (P32246 1-355): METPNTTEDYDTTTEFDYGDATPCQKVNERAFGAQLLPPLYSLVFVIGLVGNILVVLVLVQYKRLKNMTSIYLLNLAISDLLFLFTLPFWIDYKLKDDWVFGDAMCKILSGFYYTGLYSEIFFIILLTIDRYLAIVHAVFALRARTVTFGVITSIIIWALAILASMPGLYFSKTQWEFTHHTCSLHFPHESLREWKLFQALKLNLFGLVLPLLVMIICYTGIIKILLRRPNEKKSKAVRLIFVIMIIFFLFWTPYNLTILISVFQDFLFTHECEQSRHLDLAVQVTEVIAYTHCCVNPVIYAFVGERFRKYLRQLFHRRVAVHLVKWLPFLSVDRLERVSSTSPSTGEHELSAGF
Excerpt: The activity of compounds of the present invention can be assessed using suitable assays, such as receptor binding assays or chemotaxis assays. For example, as described in the Examples, small molecule antagonists of […] binding have been identified utilizing THP-1 cells membranes. Specifically, a high through-put receptor binding assay, which monitors ^125I-MIP-1α binding to THP-1 cell membranes, was used to identify small molecule antagonists which block binding of MIP-1α. Compounds of the present invention can also be identified by virtue of their ability to inhibit the activation steps triggered by binding of a chemokine (e.g., CCL2 (MCP-1) CCL3 (MIP-1α), CCL4 (MIP-1β), CCL5 (RANTES), CCL7 (MCP-3), CCL8 (MCP-2), CCL13 (MCP-4), CCL14 (HCC-1), CCL15 (Lkn-1), CCL23 (MPIF-1)) to its receptor (CCR-1), such as chemotaxis, integrin activation and granule mediator release. They can also be identified by virtue of their ability to block chemokine (e.g., CCL2 (MCP-1) CCL3 (MIP-1α), CCL4 (MIP-1β), CCL5 (RANTES), CCL7 (MCP-3), CCL8 (MCP-2), CCL13 (MCP-4), CCL14 (HCC-1), CCL15 (Lkn-1), CCL23 (MPIF-1)) induced chemotaxis of, for example, HL-60 cells, T-cells, peripheral blood mononuclear cells or eosinophils.
Membranes were prepared from THP-1 cells (ATCC. #TIB202). Cells were harvested by centrifugation, washed twice with PBS (phosphate-buffered saline), and the cell pellets were frozen at −70 to −85° C. The frozen pellet was thawed in ice-cold lysis buffer consisting of 5 mM HEPES (N-2-hydroxyethylpiperazine-N′-2-ethane-sulfonic acid) pH 7.5, 2 mM EDTA (ethylenediaminetetraacetic acid), 5 μg/ml each aprotinin, leupeptin, and chymostatin (protease inhibitors), and 100 μg/ml PMSF (phenyl methane sulfonyl fluoride—also a protease inhibitor), at a concentration of 1 to 5×10^7 cells/ml. This procedure results in cell lysis. The suspension was mixed well to resuspend all of the frozen cell pellet. Nuclei and cell debris were removed by centrifugation of 400×g for 10 minutes at 4° C. The supernatant was transferred to a fresh tube and the membrane fragments were collected by centrifugation at 25,000×g for 30 minutes at 4° C. The supernatant was aspirated and the pellet was resuspended in freezing buffer consisting of 10 mM HEPES pH 7.5, 300 mM sucrose, 1 μg/ml each aprotinin, leupeptin, and chymostatin, and 10 μg/ml PMSF (approximately 0.1 ml per each 10^8 cells). All clumps were resolved using a minihomogenizer, and the total protein concentration was determined using a protein assay kit (Bio-Rad, Hercules, Calif., cat #500-0002). […]
Binding Assays utilized the membranes described above. […] The filters were rinsed with approximately 600 μl of binding buffer containing 0.5 M NaCl, dried, and the amount of bound radioactivity was determined by scintillation counting.

[2] = test system: neutrophil recruitment in response to murine MIP-1α; assay: In vivo efficacy model: neutrophil recruitment in response to MIP-1α (MPO activity in skin biopsies); design: species or system guinea pig; conditions: for oral bioavailability and efficacy in comparison to the Reference Example: guinea pig, comparison in words; for oral bioavailability and efficacy in comparison to the Reference Example / ED50: oral; for ED50: 30 minutes prior to intradermal murine MIP-1α (100 pmol/site), read-out: Efficacy: Guinea Pig Neutrophil Recruitment (ED50 (mg/kg))
Procedure: An animal model of neutrophil recruitment in response to MIP-1α was used to evaluate the biological/pharmacodynamic activity of the compounds. Compounds were administered to female Hartley guinea pigs orally (doses ranged from about 0.5 mg/kg to about 5.0 mg/kg) 30 minutes prior to intradermal injections of murine MIP-1α (100 pmol/site) or phosphate buffered saline (PBS). Skin punch biopsies were taken 5 hours later and processed for myeloperoxidase (MPO) measurements. MPO activity was used as an indicator for neutrophil recruitment to the injection site.

[3] = test system: other G protein-coupled receptors and ion channels; assay: Selectivity on other G protein-coupled receptors and ion channels; conditions: assayed on other G protein-coupled receptors and ion channels; comparison in words
[4] = Cavia porcellus, Neutrophil, female Hartley guinea pigs, MPO at 5 hours

CC1(C)CN(CC/C=C2/c3cc(C(=O)O)ccc3OCc3ncccc32)CCC1(O)c1ccc(Cl)cc1 (racemic) [Example 3, racemic-5-{3-[4-(4-Chloro-phenyl)-4-hydroxy-3,3-dimethyl-piperidin-1-yl]-propylidene}-5,11-dihydro-10-oxa-1-aza-dibenzo[a,d]cycloheptene-7-carboxylic acid]
Ki [1]: 3 nM
inhibition at 2.5 mg/kg ([2]; Cavia porcellus, Neutrophil, at 2.5 mg/kg oral, female Hartley guinea pigs, intradermal murine MIP-1α, MPO at 5 hours, read-out: Efficacy: Guinea Pig Neutrophil Recruitment, % inhibition): 99%
oral bioavailability and efficacy in comparison to the Reference Example [2]: greater oral bioavailability and efficacy
selectivity compared to structurally related compounds [3]: greater selectivity

CC1(C)CN(CCC=C2c3cc(C(=O)O)ccc3OCc3ncccc32)CC[C@]1(O)c1ccc(Cl)cc1 [Example 1, (S)-5-{3-[4-(4-Chloro-phenyl)-4-hydroxy-3,3-dimethyl-piperidin-1-yl]-propylidene}-5,11-dihydro-10-oxa-1-aza-dibenzo[a,d]cycloheptene-7-carboxylic acid]
Ki [1]: 2.3 nM
ED50 [2, 4]: 0.12 mg/kg
oral bioavailability and efficacy in comparison to the Reference Example [2]: greater oral bioavailability and efficacy
selectivity compared to structurally related compounds [3]: greater selectivity

CC1(C)CN(CCC=C2c3cc(C(=O)O)ccc3OCc3ncccc32)CC[C@@]1(O)c1ccc(Cl)cc1 [Example 2, (R)-5-{3-[4-(4-Chloro-phenyl)-4-hydroxy-3,3-dimethyl-piperidin-1-yl]-propylidene}-5,11-dihydro-10-oxa-1-aza-dibenzo[a,d]cycloheptene-7-carboxylic acid]
Ki [1]: > 1000 nM

O=C(O)c1ccc2c(c1)/C(=C/CCN1CCC(O)(c3ccc(Cl)cc3)CC1)c1cccnc1CO2 [Reference Example, reference compound]
Ki [1]: 7.8 nM
ED50 [2, 4]: 3.6 mg/kg
